Experimental data: article PMC5895699, “Catalytically active inclusion bodies of L-lysine decarboxylase from E. coli for 1,5-diaminopentane production” (Scientific Reports, 2018)

Biological target: T1, EcLDCc-CatIBs (EcLDCc-TDoT fusion; constitutive L-lysine decarboxylase from E. coli) (Escherichia coli, UniProt P52095)
T1 construct: gene ldcC; full-length EcLDCc with C-terminal 3xGGGS linker and TDoT coiled-coil tag (tetrabrachion, Staphylothermus marinus), pET28, E. coli BL21(DE3)
T1 sequence (P52095 1-713): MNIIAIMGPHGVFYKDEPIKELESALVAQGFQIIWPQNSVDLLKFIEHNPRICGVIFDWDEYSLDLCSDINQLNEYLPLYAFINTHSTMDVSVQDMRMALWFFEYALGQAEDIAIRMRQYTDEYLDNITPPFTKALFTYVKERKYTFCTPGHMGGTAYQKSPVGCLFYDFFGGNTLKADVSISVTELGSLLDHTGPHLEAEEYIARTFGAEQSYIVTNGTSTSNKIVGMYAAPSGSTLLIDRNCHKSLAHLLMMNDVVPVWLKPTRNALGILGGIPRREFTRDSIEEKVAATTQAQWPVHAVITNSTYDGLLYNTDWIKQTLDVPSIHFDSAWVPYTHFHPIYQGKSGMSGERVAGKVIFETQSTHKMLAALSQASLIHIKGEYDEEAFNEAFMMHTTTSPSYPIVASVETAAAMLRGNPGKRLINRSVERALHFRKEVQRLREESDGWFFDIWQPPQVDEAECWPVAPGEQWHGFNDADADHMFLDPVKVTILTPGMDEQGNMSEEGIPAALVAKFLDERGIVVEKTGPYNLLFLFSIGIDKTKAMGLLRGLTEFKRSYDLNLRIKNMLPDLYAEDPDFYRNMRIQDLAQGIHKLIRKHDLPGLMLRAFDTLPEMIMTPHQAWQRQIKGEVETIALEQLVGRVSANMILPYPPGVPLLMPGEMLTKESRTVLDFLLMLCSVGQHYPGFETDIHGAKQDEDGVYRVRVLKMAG
Assay: HPLC of […],5-diaminopentane formed, OPA derivatisation
Assay type: biochemical
Details: 50 mM KPi buffer, 10 mM L-lysine, 30 °C, pH 7-9 (general range; pH 9 differs); CatIB enzyme as prepared, not PLP-depleted

`Cc1ncc(COP(=O)(O)O)c(C=O)c1O` [pyridoxal-5′-phosphate] was tested, and the “% activity increase at 0.1 mM PLP” value was 5–15%.
